Assay results reported in ChEMBL document CHEMBL1201862, “PubChem BioAssay data set” (2004).
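Tested at 5 concentrations; 48 h exposure; 96-well plates; endpoints linearly interpolated, else capped at highest concentration. GI50: concentration for 50% inhibition of growth.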 Active and inactive are the calls of the source. No stated cut-off is given here; in the data, active = GI50 up to about 1.1 µM and inactive = higher.

Key:
Experiment in all cases: growth of human tumour cells (NCI), 48 h
OVCAR-4 = test system: OVCAR-4
K562 = test system: K562
HT-29 = test system: HT-29
HOP-92 = test system: HOP-92
UACC-62 = test system: UACC-62
SR = test system: SR
Malme-3M = test system: Malme-3M
PC-3 = test system: PC-3
NCI-H226 = test system: NCI-H226
SK-OV-3 = test system: SK-OV-3
CCRF-CEM = test system: CCRF-CEM
HCT-15 = test system: HCT-15
786-0 = test system: 786-0
HL-60 = test system: HL-60
OVCAR-3 = test system: OVCAR-3
DU-145 = test system: DU-145
SF-268 = test system: SF-268
ACHN = test system: ACHN
TK-10 = test system: TK-10
A549 = test system: A549
SF-295 = test system: SF-295
IGROV-1 = test system: IGROV-1
SK-MEL-2 = test system: SK-MEL-2
M14 = test system: M14
MDA-MB-435 = test system: MDA-MB-435
UO-31 = test system: UO-31
SNB-19 = test system: SNB-19
RPMI-8226 = test system: RPMI-8226
SK-MEL-28 = test system: SK-MEL-28
SW-620 = test system: SW-620
SK-MEL-5 = test system: SK-MEL-5
MOLT-4 = test system: MOLT-4
HCT-116 = test system: HCT-116
NCI/ADR-RES = test system: NCI/ADR-RES
A498 = test system: A498
U-251 = test system: U-251
MDA-N = test system: MDA-N
OVCAR-5 = test system: OVCAR-5
Hs-578T = test system: Hs-578T
SNB-75 = test system: SNB-75
LOX IMVI = test system: LOX IMVI
KM12 = test system: KM12
NCI-H23 = test system: NCI-H23
MDA-MB-231 = test system: MDA-MB-231
HOP-62 = test system: HOP-62
SN12C = test system: SN12C
NCI-H522 = test system: NCI-H522
EKVX = test system: EKVX
MCF7 = test system: MCF7
OVCAR-8 = test system: OVCAR-8
COLO 205 = test system: COLO 205
CAKI-1 = test system: CAKI-1
HCC 2998 = test system: HCC 2998
SF-539 = test system: SF-539
RXF 393 = test system: RXF 393
T47D = test system: T47D
NCI-H460 = test system: NCI-H460

## COc1ccc(/C=C2\N=C(SC)N(CN3CCOCC3)C2=O)cc1
OVCAR-4
  GI50: 18.6 µM (inactive)
K562
  GI50: 39 µM (inactive)
HT-29
  GI50: 27.5 µM (inactive)
HOP-92
  GI50: 5.38 µM (inactive)
UACC-62
  GI50: 40.2 µM (inactive)
SR
  GI50: 30.8 µM (inactive)
Malme-3M
  GI50: 72.6 µM (inactive)
PC-3
  GI50: 49.2 µM (inactive)
NCI-H226
  GI50: 29.2 µM (inactive)
SK-OV-3
  GI50: > 100 µM (inactive)
CCRF-CEM
  GI50: 21.2 µM (inactive)
HCT-15
  GI50: 30.7 µM
786-0
  GI50: 70.6 µM (inactive)
HL-60
  GI50: 56.9 µM (inactive)
OVCAR-3
  GI50: 90.6 µM (inactive)
DU-145
  GI50: 65.9 µM (inactive)
SF-268
  GI50: 48 µM (inactive)
ACHN
  GI50: 43.3 µM (inactive)
TK-10
  GI50: 56.5 µM (inactive)
A549
  GI50: 65.3 µM (inactive)
SF-295
  GI50: 98.9 µM (inactive)
IGROV-1
  GI50: 37.5 µM (inactive)
SK-MEL-2
  GI50: > 100 µM (inactive)
M14
  GI50: 55 µM (inactive)
MDA-MB-435
  GI50: 74.8 µM (inactive)
UO-31
  GI50: 49.8 µM (inactive)
SNB-19
  GI50: 84.5 µM (inactive)
RPMI-8226
  GI50: 24.8 µM (inactive)
SK-MEL-28
  GI50: > 100 µM (inactive)
SW-620
  GI50: 22 µM (inactive)
SK-MEL-5
  GI50: 47.3 µM (inactive)
MOLT-4
  GI50: 36.4 µM (inactive)
HCT-116
  GI50: 33.1 µM (inactive)
NCI/ADR-RES
  GI50: 80.9 µM (inactive)
A498
  GI50: 34 µM (inactive)
U-251
  GI50: 51.6 µM (inactive)
MDA-N
  GI50: 71.1 µM (inactive)
OVCAR-5
  GI50: > 100 µM (inactive)
Hs-578T
  GI50: 59.2 µM (inactive)
SNB-75
  GI50: 60.7 µM (inactive)
LOX IMVI
  GI50: 37.2 µM (inactive)
KM12
  GI50: 78.3 µM (inactive)
NCI-H23
  GI50: > 100 µM (inactive)
MDA-MB-231
  GI50: > 100 µM (inactive)
HOP-62
  GI50: 69.7 µM (inactive)
SN12C
  GI50: > 100 µM (inactive)
NCI-H522
  GI50: 82.8 µM (inactive)
EKVX
  GI50: 55.2 µM (inactive)
MCF7
  GI50: 16 µM (inactive)
OVCAR-8
  GI50: 48.2 µM (inactive)
COLO 205
  GI50: 36.3 µM (inactive)

## COc1cc(C(SCc2ccccc2)SCc2ccccc2)ccc1O
CAKI-1
  GI50: > 10 µM (inactive)
K562
  GI50: > 10 µM (inactive)
HT-29
  GI50: > 10 µM (inactive)
HOP-92
  GI50: > 10 µM (inactive)
UACC-62
  GI50: > 10 µM (inactive)
SR
  GI50: > 10 µM (inactive)
Malme-3M
  GI50: > 10 µM (inactive)
PC-3
  GI50: > 10 µM (inactive)
NCI-H226
  GI50: > 10 µM (inactive)
SK-OV-3
  GI50: 4.22 µM (inactive)
CCRF-CEM
  GI50: > 10 µM (inactive)
HCT-15
  GI50: > 10 µM
786-0
  GI50: > 10 µM (inactive)
HL-60
  GI50: > 10 µM (inactive)
OVCAR-3
  GI50: > 10 µM (inactive)
DU-145
  GI50: > 10 µM (inactive)
SF-268
  GI50: > 10 µM (inactive)
ACHN
  GI50: > 10 µM (inactive)
TK-10
  GI50: > 10 µM (inactive)
SF-295
  GI50: > 10 µM (inactive)
HCC 2998
  GI50: > 10 µM (inactive)
IGROV-1
  GI50: > 10 µM (inactive)
SK-MEL-2
  GI50: > 10 µM (inactive)
M14
  GI50: > 10 µM (inactive)
UO-31
  GI50: 7.06 µM (inactive)
SF-539
  GI50: > 10 µM (inactive)
SNB-19
  GI50: > 10 µM (inactive)
RXF 393
  GI50: 9.4 µM (inactive)
RPMI-8226
  GI50: > 10 µM (inactive)
SK-MEL-28
  GI50: > 10 µM (inactive)
SW-620
  GI50: > 10 µM (inactive)
SK-MEL-5
  GI50: > 10 µM (inactive)
MOLT-4
  GI50: 9.33 µM (inactive)
HCT-116
  GI50: 7.41 µM (inactive)
NCI/ADR-RES
  GI50: > 10 µM (inactive)
A498
  GI50: > 10 µM (inactive)
U-251
  GI50: > 10 µM (inactive)
MDA-N
  GI50: > 10 µM (inactive)
Hs-578T
  GI50: 6.12 µM (inactive)
SNB-75
  GI50: > 10 µM (inactive)
LOX IMVI
  GI50: > 10 µM (inactive)
T47D
  GI50: 8.97 µM (inactive)
KM12
  GI50: > 10 µM (inactive)
MDA-MB-231
  GI50: > 10 µM (inactive)
NCI-H460
  GI50: > 10 µM (inactive)
HOP-62
  GI50: > 10 µM (inactive)
SN12C
  GI50: > 10 µM (inactive)
NCI-H522
  GI50: > 10 µM (inactive)
EKVX
  GI50: > 10 µM (inactive)
MCF7
  GI50: > 10 µM (inactive)
OVCAR-8
  GI50: > 10 µM (inactive)
COLO 205
  GI50: > 10 µM (inactive)
